Measured values: article PMC5218480 (PLoS ONE, 2017)

Tested on: MV-4-11 cells
Assay: Gene expression microarray analysis (Affymetrix PrimeView) and GSEA
Format: cell-based, human
Parameters: RFU PODN (11730768_x_at) / Fold change /veh PODN (11730768_x_at) / RFU LINC00158 (11744669_a_at) / Fold change /veh LINC00158 (11744669_a_at) / RFU DUSP10 (11751237_a_at) / Fold change /veh DUSP10 (11751237_a_at) / RFU ID3 (11757404_x_at) / Fold change /veh ID3 (11757404_x_at) / RFU PLEKHG5 (11737974_s_at) / Fold change /veh PLEKHG5 (11737974_s_at) / RFU LRRC4B (11730491_at) / Fold change /veh LRRC4B (11730491_at) / RFU GIMAP4 (11747438_a_at) / Fold change /veh GIMAP4 (11747438_a_at) / RFU KRT8 (11758183_x_at) / Fold change /veh KRT8 (11758183_x_at) / RFU CNN1 (11734310_a_at) / Fold change /veh CNN1 (11734310_a_at) / RFU VPS37D (11726825_at) / Fold change /veh VPS37D (11726825_at) / RFU C10orf10 (11716522_x_at) / Fold change /veh C10orf10 (11716522_x_at) / RFU KIR2DL2 /// KIR2DL4 /// KIR2DL5A /// KIR2DL5B /// KIR2DS1 /// KIR2DS2 /// KIR2DS3 /// KIR2DS4 /// KIR3DL3 /// KIR3DL3 /// KIR3DS1 (11738374_at) / Fold change /veh KIR2DL2 /// KIR2DL4 /// KIR2DL5A /// KIR2DL5B /// KIR2DS1 /// KIR2DS2 /// KIR2DS3 /// KIR2DS4 /// KIR3DL3 /// KIR3DL3 /// KIR3DS1 (11738374_at) / RFU C1QL1 (11718748_at) / Fold change /veh C1QL1 (11718748_at) / RFU TMPRSS4 (11747572_a_at) / Fold change /veh TMPRSS4 (11747572_a_at) / RFU HAMP (11756126_x_at) / Fold change /veh HAMP (11756126_x_at) / RFU RNFT2 (11725882_a_at) / Fold change /veh RNFT2 (11725882_a_at) / RFU NR4A2 (11747474_a_at) / Fold change /veh NR4A2 (11747474_a_at) / RFU ABCC12 (11746883_a_at) / Fold change /veh ABCC12 (11746883_a_at) / RFU TMEM136 (11760407_x_at) / Fold change /veh TMEM136 (11760407_x_at) / RFU CLDN22 /// WWC2 (11732394_at) / Fold change /veh CLDN22 /// WWC2 (11732394_at) / RFU HLA-DPB1 (11760878_x_at) / Fold change /veh HLA-DPB1 (11760878_x_at) / RFU SPINT1 (11716480_a_at) / Fold change /veh SPINT1 (11716480_a_at) / RFU GAP43 (11754022_s_at) / Fold change /veh GAP43 (11754022_s_at) / RFU A4GNT (11735810_at) / Fold change /veh A4GNT (11735810_at) / RFU PRB3 (11715151_x_at) / Fold change /veh PRB3 (11715151_x_at) / RFU TUBB4B (11761932_at) / Fold change /veh TUBB4B (11761932_at) / RFU CAPN14 (11732068_a_at) / Fold change /veh CAPN14 (11732068_a_at) / RFU TMCC2 (11721928_a_at) / Fold change /veh TMCC2 (11721928_a_at) / RFU IRGQ (11745062_a_at) / Fold change /veh IRGQ (11745062_a_at) / RFU FAM174B (11720279_a_at) / Fold change /veh FAM174B (11720279_a_at) / RFU TMPRSS4 (11748680_a_at) / Fold change /veh TMPRSS4 (11748680_a_at) / RFU FAM212B (11763350_a_at) / Fold change /veh FAM212B (11763350_a_at) / RFU PLEKHG5 (11743358_a_at) / Fold change /veh PLEKHG5 (11743358_a_at) / RFU ZSCAN30 (11745921_a_at) / Fold change /veh ZSCAN30 (11745921_a_at) / RFU CMKLR1 (11741424_a_at) / Fold change /veh CMKLR1 (11741424_a_at) / RFU LOC101060620 /// MAPK8IP1 (11723275_at) / Fold change /veh LOC101060620 /// MAPK8IP1 (11723275_at) / RFU SPTSSB (11747773_x_at) / Fold change /veh SPTSSB (11747773_x_at) / RFU PRSS12 (11739890_at) / Fold change /veh PRSS12 (11739890_at) / RFU BIN1 (11741810_x_at) / Fold change /veh BIN1 (11741810_x_at) / RFU WNT11 (11732464_a_at) / Fold change /veh WNT11 (11732464_a_at) / RFU C10orf10 (11716521_a_at) / Fold change /veh C10orf10 (11716521_a_at) / RFU C5orf56 (11738089_at) / Fold change /veh C5orf56 (11738089_at) / RFU CYB561 (11721691_x_at) / Fold change /veh CYB561 (11721691_x_at) / RFU ANKRD19P (11752326_a_at) / Fold change /veh ANKRD19P (11752326_a_at) / RFU OR2T12 /// OR2T33 /// OR2T8 (11738714_s_at) / Fold change /veh OR2T12 /// OR2T33 /// OR2T8 (11738714_s_at) / RFU VCAN (11748164_a_at) / Fold change /veh VCAN (11748164_a_at) / RFU JSRP1 (11732532_at) / Fold change /veh JSRP1 (11732532_at) / RFU KRTAP10-11 (11738290_x_at) / Fold change /veh KRTAP10-11 (11738290_x_at) / RFU MYO3A (11730013_a_at) / Fold change /veh MYO3A (11730013_a_at) / RFU EBF3 (11725865_a_at) / Fold change /veh EBF3 (11725865_a_at) / RFU CAMK2N1 (11719241_x_at) / Fold change /veh CAMK2N1 (11719241_x_at) / RFU C5orf56 (11738088_a_at) / Fold change /veh C5orf56 (11738088_a_at) / RFU OLFML3 (11715873_a_at) / Fold change /veh OLFML3 (11715873_a_at) / RFU LOC100653217 /// NTM (11731650_a_at) / Fold change /veh LOC100653217 /// NTM (11731650_a_at) / RFU MAPK11 (11762145_a_at) / Fold change /veh MAPK11 (11762145_a_at) / RFU FIZ1 (11724087_x_at) / Fold change /veh FIZ1 (11724087_x_at) / RFU OASL (11726364_x_at) / Fold change /veh OASL (11726364_x_at) / RFU SOX15 (11748057_x_at) / Fold change /veh SOX15 (11748057_x_at) / RFU CD79A (11719716_a_at) / Fold change /veh CD79A (11719716_a_at) / RFU HIST1H1D (11736915_at) / Fold change /veh HIST1H1D (11736915_at) / RFU CASKIN2 (11723855_a_at) / Fold change /veh CASKIN2 (11723855_a_at) / RFU LOC730098 (11760151_x_at) / Fold change /veh LOC730098 (11760151_x_at) / RFU OR4N2 (11742367_at) / Fold change /veh OR4N2 (11742367_at) / RFU PRRT2 (11749266_a_at) / Fold change /veh PRRT2 (11749266_a_at) / RFU SNX32 (11753110_a_at) / Fold change /veh SNX32 (11753110_a_at) / RFU CDHR5 (11726645_a_at) / Fold change /veh CDHR5 (11726645_a_at) / RFU RCAN1 (11760418_a_at) / Fold change /veh RCAN1 (11760418_a_at) / RFU FAM167A (11723789_a_at) / Fold change /veh FAM167A (11723789_a_at) / RFU FAM26E (11764081_at) / Fold change /veh FAM26E (11764081_at) / RFU ISYNA1 (11749810_s_at) / Fold change /veh ISYNA1 (11749810_s_at) / RFU ACY1 (11761880_at) / Fold change /veh ACY1 (11761880_at) / RFU 11764098_at / Fold change /veh 11764098_at / RFU SAMD14 (11745864_x_at) / Fold change /veh SAMD14 (11745864_x_at) / RFU NPB (11741838_a_at) / Fold change /veh NPB (11741838_a_at) / RFU TMPRSS6 (11731388_a_at) / Fold change /veh TMPRSS6 (11731388_a_at) / RFU KRTAP10-2 (11738614_at) / Fold change /veh KRTAP10-2 (11738614_at) / RFU ARHGAP8 /// PRR5-ARHGAP8 (11727945_x_at) / Fold change /veh ARHGAP8 /// PRR5-ARHGAP8 (11727945_x_at) / RFU KRTAP5-7 /// NADSYN1 (11734609_at) / Fold change /veh KRTAP5-7 /// NADSYN1 (11734609_at) / RFU RASL12 (11751679_a_at) / Fold change /veh RASL12 (11751679_a_at) / RFU CDKN2B (11736163_a_at) / Fold change /veh CDKN2B (11736163_a_at) / RFU PRF1 (11729649_at) / Fold change /veh PRF1 (11729649_at) / RFU, ZNF638 /// ZNF638-IT1 / Fold change vs veh, ZNF638 /// ZNF638-IT1 / RFU, PANK3 / Fold change vs veh, PANK3 / RFU, SH3YL1 / Fold change vs veh, SH3YL1 / RFU, ZEB2 / Fold change vs veh, ZEB2 / RFU, NRIP1 / Fold change vs veh, NRIP1 / RFU, PTTG1IP / Fold change vs veh, PTTG1IP / RFU, CAPN2 / Fold change vs veh, CAPN2 / RFU, MED14 / Fold change vs veh, MED14 / RFU, SNORA58 / Fold change vs veh, SNORA58 / RFU, C1orf63 / Fold change vs veh, C1orf63 / RFU, LRRFIP1 / Fold change vs veh, LRRFIP1 / RFU, NDUFAF7 / Fold change vs veh, NDUFAF7 / RFU, SLC12A2 / Fold change vs veh, SLC12A2 / RFU, IBTK / Fold change vs veh, IBTK / RFU, ESF1 / Fold change vs veh, ESF1 / Fold change vs veh, TMEM50B / RFU, TAOK1 / Fold change vs veh, TAOK1 / RFU, ACBD3 / Fold change vs veh, ACBD3 / RFU, TMA16 / Fold change vs veh, TMA16 / RFU, RWDD3 / Fold change vs veh, RWDD3 / RFU, BCAT1 / Fold change vs veh, BCAT1 / RFU, EDEM3 / Fold change vs veh, EDEM3 / RFU, TMEM33 / Fold change vs veh, TMEM33 / RFU, WDR75 / Fold change vs veh, WDR75 / RFU, AHCTF1 / Fold change vs veh, AHCTF1 / RFU, TFRC / Fold change vs veh, TFRC / RFU, ZDHHC17 / Fold change vs veh, ZDHHC17 / RFU, NOM1 / Fold change vs veh, NOM1 / RFU, ARL8B / Fold change vs veh, ARL8B / RFU, ZBTB11 / Fold change vs veh, ZBTB11 / RFU, TAMM41 / Fold change vs veh, TAMM41 / RFU, KIAA1704 /// LOC100996395 / Fold change vs veh, KIAA1704 /// LOC100996395 / RFU, ING1 / Fold change vs veh, ING1 / RFU, TRMT61B / Fold change vs veh, TRMT61B / RFU, FUBP3 / Fold change vs veh, FUBP3 / RFU, TP53 / Fold change vs veh, TP53 / RFU, TNKS2 / Fold change vs veh, TNKS2 / RFU, ZFP14 / Fold change vs veh, ZFP14 / RFU, ACTR2 / Fold change vs veh, ACTR2 / RFU, PPP3R1 / Fold change vs veh, PPP3R1 / RFU, PIK3R1 / Fold change vs veh, PIK3R1 / RFU, HNRNPA1 / Fold change vs veh, HNRNPA1 / RFU, RNF170 / Fold change vs veh, RNF170 / RFU, ZNF28 / Fold change vs veh, ZNF28 / RFU, RNGTT / Fold change vs veh, RNGTT / RFU, OGT / Fold change vs veh, OGT / RFU, BRD1 / Fold change vs veh, BRD1 / RFU, MARS / Fold change vs veh, MARS / RFU, ZNF655 / Fold change vs veh, ZNF655 / RFU, FAHD1 / Fold change vs veh, FAHD1 / RFU, BDP1 / Fold change vs veh, BDP1 / RFU, LRRCC1 / Fold change vs veh, LRRCC1 / RFU, ARID1A / Fold change vs veh, ARID1A / RFU, ZNF146 / Fold change vs veh, ZNF146 / RFU, ZNF330 / Fold change vs veh, ZNF330 / RFU, GPN3 / Fold change vs veh, GPN3 / RFU, C9orf123 / Fold change vs veh, C9orf123 / RFU, N4BP2L2 / Fold change vs veh, N4BP2L2 / RFU, ARFIP1 / Fold change vs veh, ARFIP1 / RFU, FAM179B / Fold change vs veh, FAM179B / RFU, BCL10 / Fold change vs veh, BCL10 / RFU, UHRF1BP1L / Fold change vs veh, UHRF1BP1L / RFU, BET1 / Fold change vs veh, BET1 / RFU, CNOT2 / Fold change vs veh, CNOT2 / RFU, ZNF268 / Fold change vs veh, ZNF268 / Fold change vs veh, ZNF507 / RFU, DGCR2 / Fold change vs veh, DGCR2 / RFU, WDSUB1 / Fold change vs veh, WDSUB1 / Fold change vs veh, HSP90B1 /// MIR3652 / RFU, ADSS / Fold change vs veh, ADSS / RFU, GK / Fold change vs veh, GK / RFU, ZNF148 / Fold change vs veh, ZNF148 / RFU, TAF9 / Fold change vs veh, TAF9 / RFU, SLC1A5 / Fold change vs veh, SLC1A5 / RFU, SLMO2 / Fold change vs veh, SLMO2 / RFU, ABCC4 / Fold change vs veh, ABCC4 / RFU, LOC101060439 /// RAP1B / Fold change vs veh, LOC101060439 /// RAP1B / RFU, RFX7 / Fold change vs veh, RFX7 / RFU, GTPBP10 / Fold change vs veh, GTPBP10 / RFU, CNEP1R1 / Fold change vs veh, CNEP1R1 / RFU, BIVM-ERCC5 /// ERCC5 / Fold change vs veh, BIVM-ERCC5 /// ERCC5 / RFU, ILF3 / Fold change vs veh, ILF3 / RFU 11762660_at / Fold change /veh 11762660_at / RFU VCAN (11757783_s_at) / Fold change /veh VCAN (11757783_s_at) / RFU DDX43 (11728927_at) / Fold change /veh DDX43 (11728927_at) / RFU KRT8 (11758188_x_at) / Fold change /veh KRT8 (11758188_x_at) / RFU NKD1 (11759106_at) / Fold change /veh NKD1 (11759106_at) / RFU SRD5A1 (11742802_a_at) / Fold change /veh SRD5A1 (11742802_a_at) / RFU TPSAB1 /// TPSB2 (11721975_s_at) / Fold change /veh TPSAB1 /// TPSB2 (11721975_s_at) / RFU GSTM3 (11746129_a_at) / Fold change /veh GSTM3 (11746129_a_at) / RFU IL23R (11737362_x_at) / Fold change /veh IL23R (11737362_x_at) / RFU TMEM51 (11727254_a_at) / Fold change /veh TMEM51 (11727254_a_at) / RFU PIWIL2 (11732686_x_at) / Fold change /veh PIWIL2 (11732686_x_at) / RFU ORM1 (11744905_x_at) / Fold change /veh ORM1 (11744905_x_at) / RFU CCDC152 (11743942_at) / Fold change /veh CCDC152 (11743942_at) / RFU ECM1 (11717891_a_at) / Fold change /veh ECM1 (11717891_a_at) / RFU IL23R (11748794_a_at) / Fold change /veh IL23R (11748794_a_at) / RFU TNFAIP8L3 (11732012_x_at) / Fold change /veh TNFAIP8L3 (11732012_x_at) / RFU MBOAT4 (11741988_at) / Fold change /veh MBOAT4 (11741988_at) / RFU 11764193_at / Fold change /veh 11764193_at / RFU TMEM53 (11763286_at) / Fold change /veh TMEM53 (11763286_at) / RFU MAGEB2 (11727129_at) / Fold change /veh MAGEB2 (11727129_at) / RFU TMEM200A (11744735_a_at) / Fold change /veh TMEM200A (11744735_a_at) / RFU CCDC152 (11751479_a_at) / Fold change /veh CCDC152 (11751479_a_at) / RFU FAM211A (11726209_a_at) / Fold change /veh FAM211A (11726209_a_at) / RFU RGS16 (11746705_a_at) / Fold change /veh RGS16 (11746705_a_at) / RFU VCAN (11755009_s_at) / Fold change /veh VCAN (11755009_s_at) / RFU RHOB (11743442_s_at) / Fold change /veh RHOB (11743442_s_at) / RFU RGS16 (11720943_a_at) / Fold change /veh RGS16 (11720943_a_at) / RFU RGS16 (11720944_at) / Fold change /veh RGS16 (11720944_at) / RFU, VPS4B / Fold change vs veh, VPS4B / RFU, CREB1 / Fold change vs veh, CREB1 / RFU, DNAJC13 / Fold change vs veh, DNAJC13 / RFU, GNAQ / Fold change vs veh, GNAQ / RFU, CDK5R1 / Fold change vs veh, CDK5R1 / RFU, ZRANB3 / Fold change vs veh, ZRANB3 / RFU, CUL4A / Fold change vs veh, CUL4A / RFU, CCNY / Fold change vs veh, CCNY / RFU, UFL1 / Fold change vs veh, UFL1 / RFU, COG3 / Fold change vs veh, COG3 / RFU, DIAPH2 / Fold change vs veh, DIAPH2 / RFU, SKA2 / Fold change vs veh, SKA2 / RFU, AFF3 / Fold change vs veh, AFF3 / RFU, LMF1 / Fold change vs veh, LMF1 / RFU, IPO11 / Fold change vs veh, IPO11 / RFU, DFFB / Fold change vs veh, DFFB / RFU, FOXP1 / Fold change vs veh, FOXP1 / RFU, CARD8 / Fold change vs veh, CARD8 / RFU, STRN3 / Fold change vs veh, STRN3 / RFU, ADK / Fold change vs veh, ADK / RFU, RASSF2 / Fold change vs veh, RASSF2 / RFU, WIPF1 / Fold change vs veh, WIPF1 / RFU, LARP1B / Fold change vs veh, LARP1B / RFU, RASA1 / Fold change vs veh, RASA1 / RFU, RB1 / Fold change vs veh, RB1 / RFU, PPFIA1 / Fold change vs veh, PPFIA1 / RFU, MAT2A / Fold change vs veh, MAT2A / RFU, CCT5 / Fold change vs veh, CCT5 / RFU, WDR92 / Fold change vs veh, WDR92 / RFU, CUX1 / Fold change vs veh, CUX1 / RFU, TTC7A / Fold change vs veh, TTC7A / RFU, TMEM135 / Fold change vs veh, TMEM135 / RFU, DEPTOR / Fold change vs veh, DEPTOR / RFU, CPM / Fold change vs veh, CPM / RFU, DNAJB6 / Fold change vs veh, DNAJB6 / RFU, CACNA2D3 / Fold change vs veh, CACNA2D3 / RFU, DTX4 / Fold change vs veh, DTX4 / RFU, TFCP2 / Fold change vs veh, TFCP2 / RFU, GMCL1 /// GMCL1P1 / Fold change vs veh, GMCL1 /// GMCL1P1 / RFU, AEBP2 / Fold change vs veh, AEBP2 / RFU, SNHG1 /// SNORD22 /// SNORD25 /// SNORD26 /// SNORD27 /// SNORD28 /// SNORD29 /// SNORD31 / Fold change vs veh, SNHG1 /// SNORD22 /// SNORD25 /// SNORD26 /// SNORD27 /// SNORD28 /// SNORD29 /// SNORD31 / Fold change (Aza/veh), C12orf56 (ProbeSet 11735607_a_at) / Fold change (ACY-1035/veh), C12orf56 (ProbeSet 11735607_a_at) / Fold change (Aza/veh), FGFR1OP (ProbeSet 11751329_s_at) / Fold change (ACY-1035/veh), FGFR1OP (ProbeSet 11751329_s_at) / Fold change (Aza/veh), VPS36 (ProbeSet 11739960_a_at) / Fold change (ACY-1035/veh), VPS36 (ProbeSet 11739960_a_at) / RFU SYPL1 (11715823_x_at) / Fold change /veh SYPL1 (11715823_x_at) / RFU IGFBP7 (11715501_s_at) / Fold change /veh IGFBP7 (11715501_s_at) / RFU REEP3 (11722064_at) / Fold change /veh REEP3 (11722064_at) / RFU IGLL1 (11728026_x_at) / Fold change /veh IGLL1 (11728026_x_at): dose or concentration left out as unconfirmed
Settings: ProbeSet 11743580_s_at; LIST B

With `Nc1ccc(-c2cccs2)cc1NC(=O)c1ccc2c(c1)cc(C1CC1)n2CCN1CCOCC1` [ACY-1035] the “Fold change vs veh, ACTR2” value was 0.83.
